The results in this text go back to ChEMBL document CHEMBL3758137 (Eur J Med Chem, 2016).

Data set [1] is described as follows: Antiproliferative activity against human EBC1 cells after 72 hrs by SRB assay. The conditions noted are these: EBC-1, 72 h. (In general: Sulforhodamine B stains cellular protein and so reports cell mass.)
Data set [2] deals with Hepatocyte growth factor receptor (Homo sapiens, UniProt P08581). The data set can be described thus: Inhibition of recombinant c-Met (unknown origin) using poly (Glu,Tyr)4:1 as substrate after 60 mins by ELISA. On the technique in general: An ELISA detects its analyte on a solid surface through an enzyme-linked reagent.
Sequence of Hepatocyte growth factor receptor (P08581 whole entry): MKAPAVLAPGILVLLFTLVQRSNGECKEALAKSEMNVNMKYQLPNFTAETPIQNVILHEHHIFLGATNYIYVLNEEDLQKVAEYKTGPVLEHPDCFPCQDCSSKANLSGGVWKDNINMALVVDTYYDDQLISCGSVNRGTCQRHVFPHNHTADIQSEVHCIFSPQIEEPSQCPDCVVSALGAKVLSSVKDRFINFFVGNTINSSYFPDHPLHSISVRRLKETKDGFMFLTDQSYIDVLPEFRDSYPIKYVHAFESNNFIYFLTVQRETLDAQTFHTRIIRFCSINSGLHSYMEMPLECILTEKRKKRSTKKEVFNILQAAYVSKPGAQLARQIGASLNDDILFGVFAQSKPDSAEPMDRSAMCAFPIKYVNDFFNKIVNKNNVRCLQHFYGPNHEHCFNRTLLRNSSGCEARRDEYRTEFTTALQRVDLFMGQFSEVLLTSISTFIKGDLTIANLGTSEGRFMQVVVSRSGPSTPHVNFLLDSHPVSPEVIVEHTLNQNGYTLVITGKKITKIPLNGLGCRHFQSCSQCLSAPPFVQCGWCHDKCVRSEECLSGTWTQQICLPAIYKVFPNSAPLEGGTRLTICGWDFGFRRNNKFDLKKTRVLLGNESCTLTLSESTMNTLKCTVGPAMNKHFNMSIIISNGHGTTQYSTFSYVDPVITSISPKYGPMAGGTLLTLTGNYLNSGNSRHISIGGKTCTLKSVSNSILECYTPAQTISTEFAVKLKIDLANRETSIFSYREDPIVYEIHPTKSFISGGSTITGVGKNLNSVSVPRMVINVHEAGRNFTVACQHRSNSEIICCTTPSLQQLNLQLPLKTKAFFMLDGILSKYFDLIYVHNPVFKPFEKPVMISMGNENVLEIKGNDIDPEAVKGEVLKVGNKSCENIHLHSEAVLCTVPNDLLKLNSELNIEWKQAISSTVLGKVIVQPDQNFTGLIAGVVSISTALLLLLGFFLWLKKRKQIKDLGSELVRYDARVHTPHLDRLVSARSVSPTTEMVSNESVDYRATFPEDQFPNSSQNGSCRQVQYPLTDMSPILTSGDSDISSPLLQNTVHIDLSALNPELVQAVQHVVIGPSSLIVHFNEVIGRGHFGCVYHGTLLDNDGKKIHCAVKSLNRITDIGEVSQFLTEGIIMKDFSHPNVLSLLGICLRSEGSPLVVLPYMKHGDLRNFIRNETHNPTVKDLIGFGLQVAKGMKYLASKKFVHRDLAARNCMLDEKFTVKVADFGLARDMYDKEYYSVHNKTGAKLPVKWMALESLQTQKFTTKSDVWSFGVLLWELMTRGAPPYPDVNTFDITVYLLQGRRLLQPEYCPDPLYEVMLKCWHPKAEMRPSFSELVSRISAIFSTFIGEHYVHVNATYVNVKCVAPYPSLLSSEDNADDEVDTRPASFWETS
The nature of data set [3]: Solubility of compound in HBSS/HEPES buffer at pH 6.8 by nephelometric analysis in presence of 0.1% BSA. It is filed as physicochemical. The conditions noted are these: HBSS/HEPES buffer with 0.1% BSA.
The nature of data set [4]: Solubility of compound in HBSS/HEPES buffer at pH 7.4 by nephelometric analysis in presence of 0.1% BSA. It is filed as physicochemical. The note with it: HBSS/HEPES buffer with 0.1% BSA.
Data set [5] is described as follows: Solubility of compound in TRIS buffer by nephelometric analysis in presence of 0.1% BSA. The conditions noted are these: TRIS buffer with 0.1% BSA. Type of data set: physicochemical.
Data set [6] in a line: Apparent permeability from apical to basolateral side in human Caco2 cells after 35 to 95 mins by LC-MS/MS analysis. Type of data set: ADME, cell-based. The conditions noted are these: Caco-2. On the technique in general: Caco-2 monolayers are a common model of the intestinal barrier.
Data set [7] is described as follows: Apparent permeability from basolateral to apical side in human Caco2 cells after 35 to 95 mins by LC-MS/MS analysis. Type of data set: ADME, cell-based. The conditions noted are these: Caco-2.
For data set [8], the system named is Liver microsome. As to the kind of experiment: Intrinsic clearance in human liver microsomes at 0.1 uM after 7 to 60 mins by LC-MS/MS analysis. It is filed as ADME.
Data set [9] is described as follows: Intrinsic clearance in mouse liver microsomes at 0.1 uM after 7 to 60 mins by LC-MS/MS analysis. It is filed as ADME.
For data set [10], the system named is Liver microsome. The data set can be described thus: Intrinsic clearance in rat liver microsomes at 0.1 uM after 7 to 60 mins by LC-MS/MS analysis. It is filed as ADME.
The nature of data set [11]: Antitumor activity against human EBC1 cells xenografted in nude mouse assessed as tumor growth inhibition at 50 mg/kg, po qd administered for 21 days relative to control. Type of data set: functional. The conditions noted are these: EBC-1, po, 504 h, read-out: TGI.

For the molecule `CN(C)C(=O)c1ccc(-c2ccc(=O)n(Cc3cccc(Nc4ncc(-c5cnn(C)c5)cn4)c3)n2)cc1F`, the IC50 (as a rule, the concentration at which inhibition is half-maximal) in data set [1] came out at 102 nM.
In turn, `Cn1cc(-c2cnc(Nc3cccc(Cn4nc(-c5ccc(C(=O)O)c(F)c5)ccc4=O)c3)nc2)cn1` gave an IC50 in [1] of more than 200 nM.
The molecule `Cn1cc(-c2cnc(Nc3cccc(Cn4nc(-c5cccc(S(C)(=O)=O)c5)ccc4=O)c3)nc2)cn1` yielded an IC50 in data set [1] of more than 200 nM.
In [1], `Cn1cc(-c2ccc(=O)n(Cc3cccc(Nc4ncc(-c5cncs5)cn4)c3)n2)cn1` yielded an IC50 of more than 200 nM.
In data set [1], `Cn1cc(-c2cnc(Nc3cccc(Cn4nc(-c5ccncc5)ccc4=O)c3)nc2)cn1` showed an IC50 of more than 200 nM.
`CC(C)n1cc(-c2cnc(Nc3cccc(Cn4nc(-c5cnn(C)c5)ccc4=O)c3)nc2)cn1`: in data set [1], it took 94.6 nM to reach half-maximal inhibition (IC50).
In [1], `Cn1cc(-c2cnc(Nc3cccc(Cn4nc(-c5cccc(C(=O)O)c5)ccc4=O)c3)nc2)cn1` had an IC50 of more than 200 nM.
As to `CN1CCN(Cc2cnc(Nc3cccc(Cn4nc(-c5cnn(C)c5)ccc4=O)c3)nc2)CC1`, the results for the IC50 in data set [2] and in data set [1] were more than 100 nM and more than 200 nM, respectively.
With `Cn1cc(-c2cnc(Nc3cccc(Cn4nc(-c5cnn(CCO)c5)ccc4=O)c3)nc2)cn1`, in [1], the IC50 was determined as 99.8 nM.
`CNC(=O)c1ccc(-c2ccc(=O)n(Cc3cccc(Nc4ncc(-c5cnn(C)c5)cn4)c3)n2)cc1F` had an IC50 in data set [1] of 31.3 nM. Also, the solubility (kinetic) in data set [3], in [4] and in data set [5] was 2 µM each time. For the same molecule, the Papp A→B – broadly, the apparent permeability from the apical to the basolateral side of a cell layer – in [6] was determined as 1.7 ×10⁻⁶ cm/s. Further, the Papp B→A (in general, how fast a substance crosses the layer from the basolateral side) in data set [7] was 17.4 ×10⁻⁶ cm/s. Moreover, the CLH stood at 28 mL/min/g in the data set with Liver microsome [8], 50 mL/min/g in data set [9] and 64 mL/min/g in the data set on Liver microsome [10].
Take `Cn1cc(-c2ccc(=O)n(Cc3cccc(Nc4ncccn4)c3)n2)cn1`: the IC50 in data set [2] was more than 100 nM; in data set [1] it was more than 200 nM.
`Cn1cc(-c2cnc(Nc3cccc(Cn4nc(-c5ccc(Cl)c(C(F)(F)F)c5)ccc4=O)c3)nc2)cn1` showed an IC50 in data set [1] of 65 nM.
Take `Cn1cc(-c2ccc(=O)n(Cc3cccc(Nc4ncc(-c5cccnc5)cn4)c3)n2)cn1`: the IC50 in [1] is more than 200 nM.
With `COCCOc1cnc(Nc2cccc(Cn3nc(-c4cnn(C)c4)ccc3=O)c2)nc1`, the IC50 in data set [1] is more than 200 nM.
Same read-out and setting: the result for `Cn1cc(-c2cnc(Nc3cccc(Cn4nc(-c5ccc(S(C)(=O)=O)cc5)ccc4=O)c3)nc2)cn1` reads 73.4 nM; that for `CN1CCC(n2cc(-c3cnc(Nc4cccc(Cn5nc(-c6cnn(C)c6)ccc5=O)c4)nc3)cn2)CC1`, 65 nM.
Take `Cn1cc(-c2ccc(Nc3cccc(Cn4nc(-c5cnn(C)c5)ccc4=O)c3)nc2)cn1`: the IC50 in data set [2] was more than 100 nM; in data set [1], more than 200 nM.
In turn, `C[C@@H](Oc1cc(-c2cnn(C3CCNCC3)c2)cnc1N)c1c(Cl)ccc(F)c1Cl` [CRIZOTINIB] registered a concentration for half-maximal inhibition (IC50) in data set [1] of 19 nM. In addition, the inhibition in vivo at 50 mg/kg in data set [11] is 108%.
With `Cn1cc(-c2ccc(=O)n(Cc3cccc(Nc4nc5ccccc5[nH]4)c3)n2)cn1`, the IC50 in data set [2] was more than 100 nM; in data set [1], more than 200 nM.
On to `Cn1cc(-c2ccc(=O)n(Cc3cccc(Nc4ncc(-c5cnn(CCO)c5)cn4)c3)n2)cn1`, for which half-maximal inhibition in data set [1] (IC50) was put at 48.7 nM.
In [1], `Cn1cc(-c2cnc(Nc3cccc(Cn4nc(-c5cccc(C#N)c5)ccc4=O)c3)nc2)cn1` had an IC50 of 108 nM.
On the same count and under the same terms, to `Cn1cc(-c2cnc(Nc3cccc(Cn4nc(-c5cccnc5)ccc4=O)c3)nc2)cn1` belongs more than 200 nM.
As to `Cn1cc(-c2ccc(=O)n(Cc3cccc(Nc4ncn(C)n4)c3)n2)cn1`, the figures for the IC50 in [2] and in data set [1] were more than 100 nM and more than 200 nM, respectively.
The matching figures for `Cn1cc(-c2ccnc(Nc3cccc(Cn4nc(-c5cnn(C)c5)ccc4=O)c3)n2)cn1`: more than 100 nM and more than 200 nM.
